# From publication PMC6953607 (Nature microbiology, 2019)
# Tests used:
# Mouse MTD = format: in vivo, C57BL/6 mice; details: IP, mice monitored 2 weeks
# P. aeruginosa PA01 = assay: MIC, micro-dilution broth; format: cell-based
# K. pneumoniae = assay: MIC, micro-dilution broth; format: cell-based
# A. baumannii = assay: MIC, micro-dilution broth; format: cell-based
# E. cloacae = assay: MIC, micro-dilution broth; format: cell-based; details: E. cloacae ATCC 29893
# S. aureus ATCC29213 = assay: MIC, micro-dilution broth; format: cell-based
# [1] = open-label clinical trial ref 26; cited from earlier work
# E. coli MG1655 = assay: Accumulation assay, LC-MS/MS; format: cell-based; details: E. coli MG1655, 50 μM compound, up to 2 h
# S. aureus = details: cited from earlier work
# E. coli = assay: MIC, micro-dilution broth; format: cell-based; details: Escherichia coli, E. coli strains with intact outer membranes
# [2] = system: E. coli MG1655 harboring FabI variants; assay: MIC against Debio-1452-NH3-resistant colonies; format: cell-based
structure (smiles),measurement,setting,value
Cc1c(CN(C)C(=O)/C=C/c2cnc3c(c2)CC(CCN)C(=O)N3)oc2ccccc12.Cl (stereo not drawn) [Compound 3],well tolerated single dose,Mouse MTD,100 mg/kg
Cc1c(CN(C)C(=O)/C=C/c2cnc3c(c2)CC(NC(=O)OC(C)(C)C)C(=O)N3)oc2ccccc12 (stereo not drawn) [Compound 8],MIC,P. aeruginosa PA01,>32 µg/mL
same,MIC,K. pneumoniae; K. pneumoniae S47889,>32 µg/mL
same,MIC,"K. pneumoniae; Klebsiella pneumoniae, BAA1705, K. pneumoniae BAA-1705",> 32 µg/mL
same,MIC,A. baumannii; A. baumannii W41979,>32 µg/mL
same,MIC,"A. baumannii; Acinetobacter baumannii, A. baumannii F19521",> 32 µg/mL
same,MIC,E. cloacae,>32 µg/mL
Cc1c(CN(C)C(=O)/C=C/c2cnc3c(c2)CCC(=O)N3)oc2ccccc12 [Debio-1452],MIC,S. aureus ATCC29213; S. aureus ATCC 29213,0.008 µg/mL
same,fold increase in MIC in the presence of serum,"S. aureus ATCC29213; S. aureus, human serum",8 fold
same,MIC,P. aeruginosa PA01,>32 µg/mL
same,MIC,K. pneumoniae; K. pneumoniae BAA-1705,>32 µg/mL
same,MIC,K. pneumoniae; K. pneumoniae S47889,>32 µg/mL
same,MIC,A. baumannii; A. baumannii F19521,>32 µg/mL
same,MIC,A. baumannii; A. baumannii W41979,>32 µg/mL
same,efficacy in patients,[1],marked efficacy
same,accumulation,E. coli MG1655,no statistically significant accumulation over negative controls
same,efficacy in animal models of S. aureus infections,S. aureus,marked efficacy
same,MIC,E. coli,> 32 µg/mL
same,MIC,E. cloacae,>32 µg/mL
Oc1cc(Cl)ccc1Oc1ccc(Cl)cc1Cl [Triclosan],cross-resistance,[2]; A116V mutants resistant to Debio-1452-NH3,no cross-resistance
same,cross-resistance,[2]; G148S mutants resistant to Debio-1452-NH3,minimal cross-resistance
